# According to paper PMC3472544, “Glycosaminoglycan analogs as a novel anti-inflammatory strategy” (Frontiers in Immunology, 2012):
# What was measured:
# CCR1 = molecular target: T1, CCR1 (Homo sapiens, UniProt P32246); assay: Equilibrium competition receptor binding assay with CCL3 as the ligand, CCR1; conditions: data not shown
# T1 construct: expressed in transfected cells; host or cells: CHO
# T1 sequence (P32246 1-355): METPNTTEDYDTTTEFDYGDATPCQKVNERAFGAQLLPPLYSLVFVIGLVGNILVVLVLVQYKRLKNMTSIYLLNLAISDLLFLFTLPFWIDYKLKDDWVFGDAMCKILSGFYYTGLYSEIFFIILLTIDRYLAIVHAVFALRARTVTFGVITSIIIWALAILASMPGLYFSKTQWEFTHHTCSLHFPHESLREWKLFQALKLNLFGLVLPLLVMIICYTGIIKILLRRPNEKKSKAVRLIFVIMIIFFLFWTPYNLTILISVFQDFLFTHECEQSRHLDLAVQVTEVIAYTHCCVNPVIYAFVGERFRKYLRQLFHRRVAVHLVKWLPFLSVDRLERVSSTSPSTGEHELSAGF
# Procedure: (§1) The assays were carried out on membranes from CHO transfectants expressing CCR1 or CCR5, as described previously (Severin et al., [2010]). Briefly, serial dilutions of the compounds were prepared in binding buffer (50 mM TrisHCl, pH 7.2, containing 1 mM CaCl2, 5 mM MgCl2, and 0.5% BSA). Equal volumes of membrane preparation at 80 μg/ml and scintillation proximity assay (SPA) beads were mixed before adding them to a 96 well filter plate, giving a final membrane concentration in the assay of 20 μg/ml. ^125I labeled chemokines were dissolved in binding buffer at a concentration of 0.4 nM. […] The plates were incubated for 4 h. Radioactivity was counted with a beta counter for 1 min/well and the data analyzed using Graphpad Prism software. The radioligand was stored at −20°C and was used until the cpm of bound chemokine was ≥ 300 cpm.
# (§2) A study of the relative affinity of Molecule 1 toward CCL5 and heparin molecules was first evaluated by competition experiments in which CCL5, immobilized on heparin beads, was competed off the beads by increasing concentrations of Molecule 1. […] Since the principal GAG binding motif of CCL5, the BBXB motif on the 40s loop, plays a role in binding to CCR1, we determined the capacity of Molecule 1 to inhibit the binding of the chemokine CCL5 to its receptors CCR1 and CCR5 using equilibrium competition binding with a SPA-based assay.
# CCR5 [1] = molecular target: T2, CCR5 (Homo sapiens, UniProt P51681); assay: Equilibrium competition receptor binding assay with CCL3 as the ligand, CCR5; conditions: data not shown
# T2 construct: expressed in transfected cells; host or cells: CHO
# Procedure: as §1, §2
# CCL5 binding to heparin = molecular target: T3, CCL5 binding to heparin (Homo sapiens, UniProt P13501); assay: Immobilized heparin competition binding assay ([125I]-CCL5 on heparin-Sepharose beads); conditions: [125I]-CCL5 0.05 nM, 4 h, read-out: IC50 for the inhibition of CCL5 binding to heparin
# T3 sequence (P13501 24-91): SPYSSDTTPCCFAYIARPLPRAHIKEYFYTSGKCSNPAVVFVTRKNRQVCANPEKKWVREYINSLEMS
# Procedure: Competition experiments were performed as described elsewhere (Severin et al., [2010]). Briefly, heparin-Sepharose beads (Sepharose beads or binding buffer as a background control) and increasing amounts of antagonist were added to each well of a 96 well filter plate. [^125I]-CCL5, was added last, to reach a final concentration of 0.05 nM. The plates were incubated on a shaker at room temperature for 4 h. Each experiment was performed in triplicate, and the results are given as the mean of the three assays.
# CCR5 [2] = molecular target: T4, CCR5 (Homo sapiens, UniProt P13501); assay: Equilibrium competition receptor binding assay (SPA), [125I]-CCL5 on CHO/CCR5 membranes; conditions: SPA-based equilibrium competition binding
# T4 construct: expressed in transfected cells; host or cells: CHO
# T4 sequence (P13501 24-91): T3 sequence (P13501 24-91)
# Procedure: Briefly, serial dilutions of the compounds were prepared in binding buffer (50 mM TrisHCl, pH 7.2, containing 1 mM CaCl2, 5 mM MgCl2, and 0.5% BSA). […] The plates were incubated for 4 h. Radioactivity was counted with a beta counter for 1 min/well and the data analyzed using Graphpad Prism software. The radioligand was stored at −20°C and was used until the cpm of bound chemokine was ≥ 300 cpm.
# CCL5 = molecular target: T5, CCL5 (Homo sapiens, UniProt P13501); assay: NMR-based CCL5 binding, Kd from 15N-HSQC titration; conditions: for selective binding to CCL5 in the NMR screen: 206 compound library, 200 μM, HSQC chemical shift changes; for Kd: determined by protein NMR, pH 3.2, 30°C
# T5 construct: made in house
# T5 sequence (P13501 24-91): T3 sequence (P13501 24-91)
# Procedure: These molecules were charged, and contained multiple acid groups, such as carboxylates and sulfonates. In addition, many of the molecules were aromatic, to provide some hydrophobicity. The library was pooled into sets containing five compounds and these pools mixed at 200 μM, with an equal concentration of CCL5 at 30°C, and a heteronuclear single quantum coherence (HSQC) spectrum recorded immediately. For pools that induced significant change in the protein chemical shifts, a second round of screening was performed in which each of the five compounds was added individually to the protein solution. […] Dissociation constants were obtained by fitting the recorded chemical shift as a function of increasing ligand concentrations with: (1) δobs=δf+LbΔb −f in which δobs is the observed chemical shift at each point of the titration curve, δf is the chemical shift of the free protein and Δb − f is the difference in chemical shift between free and fully complexed protein.
# [3] = test system: CCL5-induced cellular recruitment into the peritoneal cavity; assay: CCL5-induced peritoneal cellular recruitment; format: in vivo, mouse; conditions: CCL5 binders administered 30 min prior to CCL5 (Figure 4A, B)
# CCR1 (Homo sapiens) = molecular target: T6, CCR1 (Homo sapiens); assay: Equilibrium competition receptor binding assay (SPA), [125I]-CCL5 on CHO/CCR1 membranes; conditions: [125I]-CCL5 0.1 nM, CHO/CCR1 membranes, SPA; read-out: IC50 for the inhibition of CCL5 binding to CCR1
# T6 construct: expressed in transfected cells; host or cells: CHO
# Procedure: The assays were carried out on membranes from CHO transfectants expressing CCR1 or CCR5, as described previously (Severin et al., [2010]). Briefly, serial dilutions of the compounds were prepared in binding buffer (50 mM TrisHCl, pH 7.2, containing 1 mM CaCl2, 5 mM MgCl2, and 0.5% BSA). Equal volumes of membrane preparation at 80 μg/ml and scintillation proximity assay (SPA) beads were mixed before adding them to a 96 well filter plate, giving a final membrane concentration in the assay of 20 μg/ml. ^125I labeled chemokines were dissolved in binding buffer at a concentration of 0.4 nM. The assay was started by the addition of 25 μL [^125I]-CCL5 to give a concentration of 0.1 nM, in a final assay volume of 100 μL. The plates were incubated for 4 h. Radioactivity was counted with a beta counter for 1 min/well and the data analyzed using Graphpad Prism software. The radioligand was stored at −20°C and was used until the cpm of bound chemokine was ≥ 300 cpm.
# [4] = test system: paw thickness after SRBC challenge; assay: Delayed-type hypersensitivity (DTH) model, SRBC; format: in vivo, BALB/c mice; conditions: for inhibition of paw swelling: oligosaccharides 10 mg/kg s.c. at −30 min and +8 h, dexamethasone by oral gavage 30 min before challenge, paw thickness at 21 h
# Procedure: Female BALB/c mice were immunized with 2 × 10^6 sheep red blood cells (SRBC) by subcutaneous route (s.c.) at the base of the tail. Five days later mice were challenged with an s.c. injection of 2 × 10^6 SRBC into the softpaw of the left hindpaw. The paw thickness was measured 21 h later and the difference calculated based on values obtained before challenge. MHxS, NisS, and StachS were injected s.c. at a dose of 10 mg/kg, 30 min before and 8 h after challenge. Vehicle was 0.02% BSA diluted in PBS. The reference compound, dexamethasone, was diluted in saline and administered by oral gavage 30 min before challenge. Group sizes were 6 for sham and 8 for all other groups.
# Figure 5 Inhibition of delayed-type hypersensitivity. Immunization was performed by s.c. administration of SRBC, followed by a challenge in the hindpaw 5 days later. The persulfated oligosaccharides (10 mg/kg) were administered 30 min prior and 8 h after the challenge. Dexamethasone was used as a positive control, and paw thickness was measured 21 h following the challenge. The statistical differences vs. the control group (mice challenged with SRBC and treated with vehicle for the compounds 0.02% BSA diluted in PBS) are shown whenever present and indicated by ^*P <0.05>; ^***P < 0.001. TEXT PRINTED IN THE PICTURE: dexamethasone: 47% *** | MHxS: 39% *** | NisS: 20% * | StachS: 41% ***
# [5] = test system: leukocyte recruitment into the synovial (knee) cavity; assay: Antigen-induced arthritis (AIA) model, mBSA; format: in vivo, mice; conditions: 50 μg s.c. immediately after mBSA; cells counted at 24 h
# Procedure: Induction of disease was performed by injection of 10 μg methylated bovine serum albumin (mBSA) as a 10 μL injection into the synovial cavity. Test compounds, at a total dose of 50 μg were injected in a total volume of 200 μL subcutaneously immediately after mBSA administration. Group sizes were 4–6 animals. Total leukocytes (A), neutrophils (B), and mononuclear cells (C) in the synovial cavity were enumerated 24 h after mBSA injection (Sachs et al., [2011]).
# Figure 6 Inhibition of antigen induced arthritis. An injection of mBSA into the synovial cavity was used to induce disease. 50 μg of the inhibitors were administered s.c. immediately after the mBSA injection, and the cells in the synovial cavity were enumerated 24 h later. (A) Total cells; (B) […]; (C) mononuclear cells. ^*P < 0.05.
# [6] = test system: citrated plasma from healthy human blood donors; assay: Anti-coagulation assay: Activated Partial Thromboplastin Time (APTT); conditions: calibrated against heparin standard curve, samples at 1 mg/ml (MHxS 0.1 mg/ml)
# Procedure: Activated Partial Thromboplastin Time (APTT) assays were performed by GlycoMar. 10 mg/ml stock solutions of NisS, StachS, and MHxS, were prepared using dH2O and stored at −20°C until use. Samples were tested at 1 mg/ml. All further dilutions were in dH2O. Prior to each assay, a calibration curve of heparin ranging from 0 to 10 IU/ml was prepared using 5th International Standard Heparin. (GlycoMar ID:92, batch 97/578, Expiry 21SEP10). Fresh human blood from healthy human blood donors was collected into S-Monovette Coagulation tubes from Sarstedt. Nine parts of freshly drawn venous blood were collected into one part trisodium citrate (0.106 M). Plasma was obtained by centrifugation at 1500 × g for 10 min. Each of the carbohydrate samples was diluted and tested at 1 mg/ml in the first instance. MHxS was subsequently tested at 0.1 mg/ml to be within the time frame of the standard curve. The APTT assay was run on an ACL 9000 Coagulation Analyzer. The coagulation time of HemosIL Normal Control (cat no. 0020003110) was checked. Samples, standards and controls were mixed 1:10 with citrated plasma in a test tube, loaded into the ACL 9000 carousel and analyzed using the extended APTT run program.
# T2 sequence (P51681 whole entry, species assumed): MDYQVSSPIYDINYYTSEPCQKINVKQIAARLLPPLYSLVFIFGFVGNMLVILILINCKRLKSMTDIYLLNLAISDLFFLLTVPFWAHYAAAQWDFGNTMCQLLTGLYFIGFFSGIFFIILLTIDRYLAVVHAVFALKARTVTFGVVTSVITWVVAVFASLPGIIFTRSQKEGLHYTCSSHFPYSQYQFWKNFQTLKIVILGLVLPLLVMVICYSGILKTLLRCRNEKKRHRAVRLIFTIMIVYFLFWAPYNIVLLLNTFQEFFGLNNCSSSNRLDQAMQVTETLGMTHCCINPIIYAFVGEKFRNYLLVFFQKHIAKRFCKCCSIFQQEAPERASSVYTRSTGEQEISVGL
compound,measurement,setting,value
O=C(O)c1cc(S(=O)(=O)O)ccc1O [Molecule 1],competition of CCL3 binding to CCR1,CCR1,no competition
same,competition of CCL3 binding to CCR5,CCR5 [1],no competition
same,IC50,CCL5 binding to heparin,320 µM
same,effect on CCL5 binding to CCR5,CCR5 [2],no effect
same,selective binding to CCL5 in the NMR screen,CCL5,confirmed to be selectively binding to CCL5
same,Kd,CCL5,20 µM
same,cell recruitment to the peritoneum,[3],inhibited cell recruitment to the peritoneum in a dose dependent manner
same,IC50,CCR1 (Homo sapiens),6.7 µM
O=C(O)c1ccccc1O [Molecule 4],Kd,CCL5,350 µM
O=S(=O)(O)c1cc(O)ccc1O [Molecule 5],Kd,CCL5,> 500 µM
Nc1ccc(O)c(S(=O)(=O)O)c1 [Molecule 6],Kd,CCL5,500 µM
Nc1cc(C(=O)O)c(O)c(S(=O)(=O)O)c1 [Molecule 7],Kd,CCL5,35 µM
CC(=O)Nc1cc(C(=O)O)c(O)c(S(=O)(=O)O)c1 [Molecule 8],selective binding to CCL5 in the NMR screen,CCL5,confirmed to be selectively binding to CCL5
same,Kd,CCL5,20 µM
O=C(O)c1cc(NS(=O)(=O)c2ccc([N+](=O)[O-])cc2)cc(S(=O)(=O)O)c1O [Molecule 9],Kd,CCL5,300 µM
O=C(O)c1c(O)ccc(S(=O)(=O)O)c1O [Molecule 10],selective binding to CCL5 in the NMR screen,CCL5,confirmed to be selectively binding to CCL5
same,Kd,CCL5,18 µM
O=C(O)c1cc(S(=O)(=O)O)c(O)cc1O [Molecule 11],Kd,CCL5,< 10 µM
O=C(O)c1c(O)c(S(=O)(=O)O)cc(S(=O)(=O)O)c1O [Molecule 12],Kd,CCL5,1 to 5 µM
O=S(=O)(O)c1ccccc1O [Molecule 13],Kd,CCL5,50 µM
O=C(O)c1cc(S(=O)(=O)Nc2cc(C(=O)O)c(O)c(S(=O)(=O)O)c2)ccc1O [Molecule 14],Kd,CCL5,< 1 µM
CC(=O)Nc1ccc(S(=O)(=O)Nc2cc(C(=O)O)c(O)c(S(=O)(=O)O)c2)cc1 [Molecule 16],Kd,CCL5,40 µM
"C[C@@H]1C[C@H]2[C@@H]3CCC4=CC(=O)C=C[C@]4(C)[C@@]3(F)[C@@H](O)C[C@]2(C)[C@@]1(O)C(=O)CO [dexamethasone, reference compound]",inhibition of paw swelling,[4],47%
persulfated Nis [NisS],mononuclear cell recruitment into the knee cavity,[5],statistically significant reduction
same,neutrophil recruitment into the knee cavity,[5],statistically significant reduction
same,IC50,CCL5 binding to heparin,5.89 ± 0.04 µM
same,Anticoagulant activity (heparin-equivalent),[6],6.87 ± 3.22 IU/mg
same,inhibition of paw swelling,[4],20%
persulfated Stach [StachS],IC50,CCL5 binding to heparin,18.6 ± 4.34 µM
same,Anticoagulant activity (heparin-equivalent),[6],6.90 ± 2.69 IU/mg
same,reduction of paw thickness compared with dexamethasone,[4]; 10 mg/kg s.c. at −30 min and +8 h,comparable effect
same,inhibition of paw swelling,[4],41%
